Reference: ChEMBL document CHEMBL5727172, “Inhibitors of hepatitis C virus” (2019)
Where “and” joins values, the source holds several entries; their conditions need not be identical. Equal values may be shown once.

Assay: The internally quenched fluorogenic depsipeptide substrate Ac-DED(Edans)-EEAbuΨ[COO]ASK(Dabcyl)-NH2 and a synthetic peptide containing the hydrophobic core residues of the NS4A protein cofactor ([…]; NS4A peptide) were obtained from Anaspec, Inc. (San Jose, Calif.). Other chemicals and biochemicals were of reagent grade or better and were purchased from standard suppliers.Reactions were run at room temperature in buffer consisting of 50 mM HEPES, 40% glycerol, 0.05% Triton X-100, 10 mM DTT, and 10% DMSO. The final assay solutions contained 50 pM NS3 genotype 1 b protease or 200 pM genotype 3a protease, 20 μM NS4A peptide, and 4 μM substrate (genotype 1b) or 2 μM substrate (genotype 3a). Inhibitor concentrations varied from 100 nM to 5 pM in 3-fold dilutions, and no-inhibitor controls were included.Compound dilutions were made in DMSO at 20× final concentration. Reaction mixtures were prepared in 96-well assay plates. A solution of enzyme and NS4A peptide in assay buffer (25 μL volume with both reagents at 4× final concentration) was mixed with 45 μL assay buffer and 5 μL of either inhibitor or DMSO, and pre-incubated at room temperature for 1 hour. The reaction was started by addition of 25 μL substrate solution at 4× final concentration. […]

With `C=CCCC[C@@H]1CCCC1(OC(=O)N[C@H](C(=O)N1C[C@H](Oc2nc3cc(OC)ccc3nc2Cl)[C@@H](CC)[C@H]1C(=O)OC(C)(C)C)C(C)(C)C)C(F)(F)F` (some centres not stated) as the compound, how does the Ki read?
The Ki was 0.59 nM and 0.52 nM.

Which Ki does the source give for `C=CCC[C@@H]1C[C@H]1OC(=O)N[C@H](C(=O)N1C[C@H](Oc2nc3cc(OC)ccc3nc2C(F)(F)C=C)[C@@H](C)[C@H]1C(=O)OC(C)(C)C)C(C)(C)C` here?
Its Ki is 0.05 nM and 0.19 nM.
